Data published in PubChem BioAssay (NCI).
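Briefly, cells in 96-well plates were exposed to five compound concentrations for 48 h, and endpoints were estimated by linear interpolation. GI50 is the concentration that inhibits growth by half. TGI denotes the concentration required for complete inhibition of growth.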

What was measured:
Assay in all cases: inhibition of tumour cell growth, NCI panel, 48 h
SF-539 CNS = system: SF-539 CNS
T-47D breast = system: T-47D breast
UACC-62 melanoma = system: UACC-62 melanoma
SNB-19 CNS = system: SNB-19 CNS
OVCAR-5 ovarian = system: OVCAR-5 ovarian
BT-549 breast = system: BT-549 breast
HL-60(TB) leukemia = system: HL-60(TB) leukemia
EKVX NSCLC = system: EKVX NSCLC
IGROV1 ovarian = system: IGROV1 ovarian
SF-295 CNS = system: SF-295 CNS
HS 578T breast = system: HS 578T breast
HCT-116 colon = system: HCT-116 colon
KM12 colon = system: KM12 colon
UACC-257 melanoma = system: UACC-257 melanoma
RXF 393 renal = system: RXF 393 renal
SN12C renal = system: SN12C renal
NCI-H460 lung = system: NCI-H460 lung
SK-MEL-28 melanoma = system: SK-MEL-28 melanoma
A498 renal = system: A498 renal
HOP-92 NSCLC = system: HOP-92 NSCLC
MCF7 breast = system: MCF7 breast
A549 NSCLC = system: A549 NSCLC
786-0 renal = system: 786-0 renal
TK-10 renal = system: TK-10 renal
CAKI-1 renal = system: CAKI-1 renal
COLO 205 colon = system: COLO 205 colon
OVCAR-8 ovarian = system: OVCAR-8 ovarian
SK-OV-3 ovarian = system: SK-OV-3 ovarian
NCI-H23 lung = system: NCI-H23 lung
LOX IMVI melanoma = system: LOX IMVI melanoma
HOP-62 NSCLC = system: HOP-62 NSCLC
MDA-MB-231 breast = system: MDA-MB-231 breast
MDA-MB-435 = system: MDA-MB-435
M14 melanoma = system: M14 melanoma
MALME-3M melanoma = system: MALME-3M melanoma
RPMI-8226 leukemia = system: RPMI-8226 leukemia
SW-620 colon = system: SW-620 colon
K-562 leukemia = system: K-562 leukemia
PC-3 prostate = system: PC-3 prostate
HT29 colon = system: HT29 colon
SK-MEL-5 melanoma = system: SK-MEL-5 melanoma
ACHN renal = system: ACHN renal
OVCAR-4 ovarian = system: OVCAR-4 ovarian
NCI-H522 lung = system: NCI-H522 lung
DU-145 prostate = system: DU-145 prostate
HCC-2998 colon = system: HCC-2998 colon
U251 CNS = system: U251 CNS
OVCAR-3 ovarian = system: OVCAR-3 ovarian
SF-268 CNS = system: SF-268 CNS
CCRF-CEM leukemia = system: CCRF-CEM leukemia
HCT-15 colon = system: HCT-15 colon
NCI/ADR-RES ovarian = system: NCI/ADR-RES ovarian
SK-MEL-2 melanoma = system: SK-MEL-2 melanoma
MOLT-4 leukemia = system: MOLT-4 leukemia
SNB-75 CNS = system: SNB-75 CNS

CSc1ccsc1-c1sc(-c2cc(SC)c(-c3sc(-c4cc(SC)c(-c5sccc5SC)s4)cc3SC)s2)cc1SC
TGI (SF-539 CNS): > 100 µM
TGI (T-47D breast): 82.8 µM
TGI (UACC-62 melanoma): > 100 µM
TGI (SNB-19 CNS): > 100 µM
TGI (OVCAR-5 ovarian): > 100 µM
TGI (BT-549 breast): > 100 µM
TGI (HL-60(TB) leukemia): 8.9 µM
TGI (EKVX NSCLC): > 100 µM
TGI (IGROV1 ovarian): > 100 µM
TGI (SF-295 CNS): > 100 µM
TGI (HS 578T breast): > 100 µM
TGI (HCT-116 colon): > 100 µM
TGI (KM12 colon): > 100 µM
TGI (UACC-257 melanoma): > 100 µM
TGI (RXF 393 renal): > 100 µM
TGI (SN12C renal): > 100 µM
TGI (NCI-H460 lung): > 100 µM
TGI (SK-MEL-28 melanoma): > 100 µM
TGI (A498 renal): > 100 µM
TGI (HOP-92 NSCLC): > 100 µM
TGI (MCF7 breast): > 100 µM
TGI (A549 NSCLC): > 100 µM
TGI (786-0 renal): 29.1 µM
TGI (TK-10 renal): > 100 µM
TGI (CAKI-1 renal): 34 µM
TGI (COLO 205 colon): > 100 µM
TGI (OVCAR-8 ovarian): > 100 µM
TGI (SK-OV-3 ovarian): > 100 µM
TGI (NCI-H23 lung): > 100 µM
TGI (LOX IMVI melanoma): > 100 µM
TGI (HOP-62 NSCLC): > 100 µM
TGI (MDA-MB-231 breast): > 100 µM
TGI (MDA-MB-435): 56.5 µM
TGI (M14 melanoma): > 100 µM
TGI (MALME-3M melanoma): 81.7 µM
TGI (RPMI-8226 leukemia): > 100 µM
TGI (SW-620 colon): 69.7 µM
TGI (K-562 leukemia): > 100 µM
TGI (PC-3 prostate): > 100 µM
TGI (HT29 colon): > 100 µM
TGI (SK-MEL-5 melanoma): > 100 µM
TGI (ACHN renal): > 100 µM
TGI (OVCAR-4 ovarian): > 100 µM
TGI (NCI-H522 lung): > 100 µM
TGI (DU-145 prostate): > 100 µM
TGI (HCC-2998 colon): > 100 µM
TGI (U251 CNS): > 100 µM
TGI (OVCAR-3 ovarian): > 100 µM
TGI (SF-268 CNS): > 100 µM
TGI (CCRF-CEM leukemia): 27 µM
TGI (HCT-15 colon): > 100 µM
TGI (NCI/ADR-RES ovarian): > 100 µM
TGI (SK-MEL-2 melanoma): > 100 µM
TGI (MOLT-4 leukemia): > 100 µM

CC(=O)c1c(O)ccc2c1c1c(n2C)C(=O)c2ccccc2C1=O
TGI (SF-539 CNS): > 100 µM
TGI (T-47D breast): 4.46 µM
TGI (SNB-19 CNS): > 100 µM
TGI (OVCAR-5 ovarian): > 100 µM
TGI (BT-549 breast): > 100 µM
TGI (HL-60(TB) leukemia): > 100 µM
TGI (EKVX NSCLC): > 48.5 µM
TGI (SF-295 CNS): > 100 µM
TGI (HS 578T breast): > 100 µM
TGI (HCT-116 colon): > 100 µM
TGI (UACC-257 melanoma): > 100 µM
TGI (SNB-75 CNS): 5.97 µM
TGI (RXF 393 renal): > 100 µM
TGI (NCI-H460 lung): > 100 µM
TGI (A498 renal): > 100 µM
TGI (MCF7 breast): > 21 µM
TGI (A549 NSCLC): > 100 µM
TGI (786-0 renal): > 100 µM
TGI (TK-10 renal): > 28.1 µM
TGI (CAKI-1 renal): > 100 µM
TGI (COLO 205 colon): > 100 µM
TGI (OVCAR-8 ovarian): > 100 µM
TGI (SK-OV-3 ovarian): > 100 µM
TGI (LOX IMVI melanoma): > 100 µM
TGI (HOP-62 NSCLC): > 100 µM
TGI (MDA-MB-231 breast): > 100 µM
TGI (K-562 leukemia): > 100 µM
TGI (HT29 colon): > 100 µM
TGI (SK-MEL-5 melanoma): > 100 µM
TGI (DU-145 prostate): > 100 µM
TGI (HCC-2998 colon): 1.36 µM
TGI (U251 CNS): > 100 µM
TGI (OVCAR-3 ovarian): 6.47 µM
TGI (SF-268 CNS): 7.97 µM
TGI (CCRF-CEM leukemia): > 44.7 µM
TGI (HCT-15 colon): > 100 µM
TGI (SK-MEL-2 melanoma): > 100 µM
TGI (MOLT-4 leukemia): > 100 µM

Cc1cc(N(CCCNc2ccnc3cc(Cl)ccc23)Cc2ccc3c(c2)OCO3)nc(N2CCOCC2)n1
GI50 (SF-539 CNS): 0.251 µM
TGI (SF-539 CNS): 0.66 µM
GI50 (T-47D breast): 0.323 µM
TGI (T-47D breast): 0.998 µM
GI50 (UACC-62 melanoma): 0.217 µM
TGI (UACC-62 melanoma): 0.501 µM
GI50 (SNB-19 CNS): 0.325 µM
TGI (SNB-19 CNS): > 100 µM
GI50 (OVCAR-5 ovarian): 0.29 µM
TGI (OVCAR-5 ovarian): 22.3 µM
GI50 (BT-549 breast): 0.334 µM
TGI (BT-549 breast): 23.5 µM
GI50 (EKVX NSCLC): 0.299 µM
TGI (EKVX NSCLC): > 100 µM
GI50 (IGROV1 ovarian): 0.338 µM
TGI (IGROV1 ovarian): 3.47 µM
GI50 (HS 578T breast): 0.288 µM
TGI (HS 578T breast): 18.6 µM
GI50 (HCT-116 colon): 0.245 µM
TGI (HCT-116 colon): 0.882 µM
GI50 (KM12 colon): 0.34 µM
TGI (KM12 colon): 25.7 µM
GI50 (UACC-257 melanoma): 0.214 µM
TGI (UACC-257 melanoma): 0.625 µM
GI50 (SNB-75 CNS): 0.204 µM
TGI (SNB-75 CNS): 0.626 µM
GI50 (RXF 393 renal): 0.202 µM
TGI (RXF 393 renal): 0.53 µM
GI50 (SN12C renal): 0.292 µM
TGI (SN12C renal): 14.4 µM
GI50 (NCI-H460 lung): 0.318 µM
TGI (NCI-H460 lung): 14.1 µM
GI50 (SK-MEL-28 melanoma): 0.254 µM
TGI (SK-MEL-28 melanoma): 0.681 µM
GI50 (MCF7 breast): 0.286 µM
TGI (MCF7 breast): 92 µM
GI50 (786-0 renal): 0.254 µM
TGI (786-0 renal): 0.907 µM
GI50 (COLO 205 colon): 0.269 µM
TGI (COLO 205 colon): 0.802 µM
GI50 (OVCAR-8 ovarian): 0.312 µM
TGI (OVCAR-8 ovarian): 25.6 µM
GI50 (LOX IMVI melanoma): 0.216 µM
TGI (LOX IMVI melanoma): 0.534 µM
GI50 (MDA-MB-231 breast): 0.303 µM
TGI (MDA-MB-231 breast): 1.37 µM
GI50 (MDA-MB-435): 0.37 µM
TGI (MDA-MB-435): 1.78 µM
GI50 (RPMI-8226 leukemia): 0.33 µM
TGI (RPMI-8226 leukemia): 2.15 µM
GI50 (SW-620 colon): 0.306 µM
TGI (SW-620 colon): 38.2 µM
GI50 (K-562 leukemia): 0.328 µM
TGI (K-562 leukemia): 10 µM
GI50 (PC-3 prostate): 0.352 µM
TGI (PC-3 prostate): 29.2 µM
GI50 (HT29 colon): 0.247 µM
TGI (HT29 colon): 0.695 µM
GI50 (SK-MEL-5 melanoma): 0.169 µM
TGI (SK-MEL-5 melanoma): 0.309 µM
GI50 (OVCAR-4 ovarian): 0.402 µM
TGI (OVCAR-4 ovarian): 32.8 µM
GI50 (NCI-H522 lung): 0.185 µM
TGI (NCI-H522 lung): 0.477 µM
GI50 (DU-145 prostate): 0.353 µM
TGI (DU-145 prostate): 53.8 µM
GI50 (HCC-2998 colon): 0.329 µM
TGI (HCC-2998 colon): 13.1 µM
GI50 (U251 CNS): 0.323 µM
TGI (U251 CNS): 3.18 µM
GI50 (OVCAR-3 ovarian): 0.359 µM
TGI (OVCAR-3 ovarian): 1.92 µM
GI50 (SF-268 CNS): 0.304 µM
TGI (SF-268 CNS): 24.7 µM
GI50 (CCRF-CEM leukemia): 0.38 µM
TGI (CCRF-CEM leukemia): > 100 µM
GI50 (HCT-15 colon): 0.311 µM
TGI (HCT-15 colon): 11.7 µM
GI50 (NCI/ADR-RES ovarian): 0.692 µM
TGI (NCI/ADR-RES ovarian): 23 µM
GI50 (SK-MEL-2 melanoma): 0.207 µM
TGI (SK-MEL-2 melanoma): 0.457 µM
GI50 (MOLT-4 leukemia): 0.283 µM
TGI (MOLT-4 leukemia): 0.953 µM
